This assay addresses T1, SAMHD1 (Homo sapiens, UniProt Q9Y3Z3).
T1 construct: recombinant SAMHD1 with N-terminal GST tag
Put plainly: TLC-based [γ-32P]-dTTP triphosphohydrolase kinetics; HPLC dGTP hydrolysis assay. It counts as biochemical.

Broadly, the Ki is a measure of affinity in units of concentration, obtained from inhibition or displacement.

T1 sequence (Q9Y3Z3 whole entry): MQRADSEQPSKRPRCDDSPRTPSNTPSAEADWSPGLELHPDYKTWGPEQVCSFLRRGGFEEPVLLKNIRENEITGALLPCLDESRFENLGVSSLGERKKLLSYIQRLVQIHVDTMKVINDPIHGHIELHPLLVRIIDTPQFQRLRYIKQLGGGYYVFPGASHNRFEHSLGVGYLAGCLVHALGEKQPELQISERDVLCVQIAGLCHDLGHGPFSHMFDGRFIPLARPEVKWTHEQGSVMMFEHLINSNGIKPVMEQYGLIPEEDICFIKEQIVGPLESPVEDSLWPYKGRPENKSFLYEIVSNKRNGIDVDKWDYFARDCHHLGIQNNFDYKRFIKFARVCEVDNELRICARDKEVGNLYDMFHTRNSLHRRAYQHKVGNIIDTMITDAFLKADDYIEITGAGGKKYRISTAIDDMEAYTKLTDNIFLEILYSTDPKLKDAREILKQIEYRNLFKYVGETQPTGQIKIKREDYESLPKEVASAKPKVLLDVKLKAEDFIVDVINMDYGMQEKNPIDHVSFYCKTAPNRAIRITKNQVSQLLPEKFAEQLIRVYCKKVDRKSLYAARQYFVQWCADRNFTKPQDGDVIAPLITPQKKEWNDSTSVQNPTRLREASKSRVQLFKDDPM

`C[C@H]1[C@H](O)[C@@H](COP(=O)(O)OP(=O)(O)OP(=O)(O)O)O[C@H]1n1ccc(=O)[nH]c1=O` [SMDU-TP]: affinity was put at a Ki of 256 ± 70 µM.

For the origin of these results see article PMC5207538, “Substrates and Inhibitors of SAMHD1” (PLoS ONE, 2017).
